# Values of other authors in patent US20150147306A1, “COMPOSITION FOR TREATING A CIRCADIAN RHYTHM DISORDER” (priority 2012, published 2015).
# Details: in humans
structure (smiles),measurement,value
COc1ccc2[nH]cc(CCNC(C)=O)c2c1 [melatonin],half-life in the serum,35 to 50 min
